Measured values published in patent US20150359757A1, “A METHOD FOR IMPROVING THE WELLBEING OF AN ANIMAL USING A COMPOSITION INCLUDING VITAMIN K” (priority 2013, published 2015).

Experiments:
[1] = complete feed formulation of multivitamins, choline chloride and trace mineral premix; room temperature; 4 months; cited from earlier work
chickens (broilers) = assay: Broiler chicken feeding experiment, Example 11; format: in vivo
Procedure: An experiment was conducted with chickens (broilers). 41,000 chickens were in a control group and were fed 4 gm/tonne vitamin K3. 41,000 thickens were in an experimental group and fed on experimental diet of 580 mg of Vitamin KQ (Example 2) formulated per tonne of food. Results were determined after the chickens were 30 days old.

layer hens = assay: Caged layer fatigue, X-ray bone density in layer hens, Example 12; format: in vivo
laying birds = assay: Old laying birds feeding experiment, Example 14; format: in vivo
Procedure: An experiment was conducted with old laying birds aged 21 weeks. 20,000 birds were given 580 mg formulated vitamin KQ/tonne of food (Example 2), instead of the control diet of 4 gm/tonne Vitamin K3.

ducks = assay: Duck rearing/fattening trial, Example 16; format: in vivo; settings: up until the 10th week, KQ 580 mg or K3 4 gm per 1000 L water
Procedure: An experiment was conducted with ducks. In the duck's rearing/fattening a similar experience was found as with chickens and turkeys with respect to observations of weight, welfare and behaviour. Duration of trial: 16 weeks • Age: Supplemented from day 7 onwards • Amount: 7,500 birds • Experimental Group: 3,500 birds • Control Group: 4,000 birds • Dosage: Treatment 580 mg KQ per 1000 L water (Example 2). Control 4 gm vitamin K3 per 1000 L water • Dosage given for 24 hours 3× per week.

prothrombin synthesis = settings: in animals; cited from earlier work
chickens = assay: Chickens hatched from breeder layer eggs, bone density and bone ash, Example 15; format: in vivo
Procedure: An experiment was conducted with laying birds and broilers: • A) Chickens hatched from the breeder layer eggs (fed 580 mg/tonne of formulated vitamin KQ) contained 50-100 ug Vitamin K1 per egg from day 1 (Example 2); • B) Chickens hatched from the breeder layer eggs were fed 4 gm/tonne vitamin K3 from day 1 contained 4-10 ug vitamin K1 per egg from day 1.
1000 chickens from each group were slaughtered at day 35 and X-rayed.

[2] = test system: calcium transfer from luman-blood; settings: chickens, 2.5 umole of menadione/kg (430 ugK3/Kg bwt.); cited from earlier work
turkeys = assay: Turkey feeding experiment, Example 8; format: in vivo
Procedure: An experiment was conducted in turkeys. In this experiment all diets used in this study were identical in nutrients, the only difference being that the control diets contained 4 gm/tonne K3 and the experimental diet contained the formulated vitamin KQ at 580 mg/tonne or per 1000 L.
Three groups of 5000 turkeys (15000 turkeys per farm) were used. In the control groups 1 and 3 were fed Vitamin K3 (4 gm/tonne of food). Experimental group 2 was fed Vitamin KQ (580 mg formulated K1/K2/Example 2/tonne of food). 200 turkeys from each group were then weighed at 10 weeks.

animals = settings: cited from earlier work
[3] = test system: carboxylation of endogenous precursors; settings: cited from earlier work
[4] = from vegetable sources, humans; cited from earlier work

## CC1(S(=O)(=O)O)CC(=O)c2ccccc2C1=O.Cc1cc(C)[nH]c(=O)n1 (stereo not drawn) [MPB, menadione dimethyl-pyrimidol bisulphite]
[1]
  retained (stability): 57%

## CC1=CC(=O)c2ccccc2C1=O [Vitamin K3, menadione]
Chickens (broilers); broilers
  Dropsy: 0.36%
  Marketable animals according an official poultry meat inspector: 95.25%
  Marketable feet A quality: 81.37%
  Skin infections: 3.65%
Chickens (broilers); of 41,000 birds slaughtered
  birds with broken bones at slaughter: 3200 birds
Layer hens; Day 27 to Day 35, 250 ug/bird/day
  Change % of RBAE bone density: −5.4%
Layer hens; layer hens
  effect on bone growth / strength (observation): deceased bone growth
  effect on caged layer fatigue (loss of bone density): failed to prevent the disease
Layer hens; layer hens, 250 ug/bird/day, Day 27
  bone density as RBAE (Radiographic bone aluminium equivalents), Day 27: 3.85 mm
Layer hens; layer hens, 250 ug/bird/day, Day 35
  bone density as RBAE (Radiographic bone aluminium equivalents), Day 35: 3.64 mm
Laying birds; 20,000 birds, KQ 580 mg/tonne, K3 4 gm/tonne of food
  eggs per day: 14,800 eggs per day
Laying birds; age of layers 2 weeks
  % eggs layed: 92%
Laying birds; age of layers 21 weeks
  % eggs layed: 92%
Laying birds; age of layers 60 weeks
  % eggs layed: 74%
Laying birds; age of layers 90 weeks
  % eggs layed: 54%
ducks
  feather picking (observation): extensive feather picking
Prothrombin synthesis
  effect on prothrombin synthesis, times lower: approximately 100 times
chickens; chickens hatched from breeder layer eggs, slaughtered at day 35, K3 4 gm/tonne, KQ 580 mg/tonne of feed
  bone density as RBAE (Radiographic bone aluminium equivalents), Day 35: 3.64 mm
chickens; chickens slaughtered at day 35
  Bone Ash: 35%
chickens; day 35
  bone ash relative to that of Vitamin KQ: 83%
  bone density relative to that of Vitamin KQ: 60%
[2]
  duration of inhibition of calcium transfer: 6 to 10 h
  time to inhibition of calcium transfer: ≤ 30 min
turkeys; turkeys
  E. coli / colibacillus infection (observation): colibacillus infection was evident
turkeys; turkeys at 10 weeks, K3 4 gm/tonne of food
  weight deviation: up to 1.2 kg
turkeys; turkeys at 10 weeks, KQ 580 mg/tonne, K3 4 gm/tonne of food
  average weight: 6.97 kg
animals; animals
  dose at which toxic levels are reached: 0.5 mg/kg
animals; relative to vitamin K1
  more toxic than vitamin K1: at least 50 ×

## CC1=C(C/C=C(\C)CCC[C@H](C)CCC[C@H](C)CCCC(C)C)C(=O)c2ccccc2C1=O [vitamin K1, phylloquinone]
[3]
  relative activity versus menadione Vitamin K3: 4 times
[4]
  bioavailability: 4.7-15%
animals; animals
  dose consumed that does not result in any toxicity: 25 gm/kg

## CC1(S(=O)(=O)[O-])CC(=O)c2ccccc2C1=O.[Na+] (stereo not drawn) [MSB, menadione sodium bisulphite]
[1]
  retained (stability): 33%
